Assay results from patent US12544370B2, “Methods for cancer therapy” (ASCENTAGE PHARMA (SUZHOU) CO., LTD., priority 2018, dated 2026).

How the values were obtained:
[1] = tested on: Ba/F3 cells having BCR-ABL^WT
[2] = tested on: murine Ba/F3 cells expressing BCR-ABL^WT; assay: Subcutaneous tumors, isogenic Ba/F3 BCR-ABL WT model; assay type: in vivo
[3] = tested on: murine Ba/F3 cells expressing BCR-ABL^T315I; assay: Subcutaneous tumors, isogenic Ba/F3 BCR-ABL T315I model; assay type: in vivo
[4] = tested on: Ba/F3 cells having BCR-ABL^T315I
[5] = Phase 1 trial, pharmacokinetics (Example 2); conditions: for half-life / Tmax: human, in vivo; for Tmax: median Tmax
Description: The eligible patients received continuous treatment until disease progression or unacceptable toxicity, consent withdrawal, or death. The primary efficacy endpoints were major cytogenetic response (MCyR) for CP and complete hematological response (CHR) for AP. MCyR includes partial cytogenetic response (PCyR) and complete cytogenetic response (CCyR). Blood samples were collected at various time points on Day 1-2 and Day 27-28 during cycle 1 for PK analyses.

[6] = tested on: human CML xenograft model; assay: Subcutaneous tumors, human CML xenograft model; assay type: in vivo
[7] = tested on: TKI-resistant patients with chronic phase (CP) or accelerated phase (AP) CML; assay: Phase I study in TKI-resistant CML, efficacy (Example 1); assay type: in vivo, human; conditions: for CHR achieved: 2 mg to 60 mg, within 3 cycles; for CCyR achieved / MCyR achieved: evaluable ≥3 cycles; for MCyR achieved: 12 mg to 50 mg
Description: The eligible patients received treatments until disease progression or intolerable toxicities. The primary efficacy endpoint in the CML AP and CP patients, was complete hematological response (CHR) and major cytogenetic response (MCyR) respectively, MCyR includes partial cytogenetic response (PCyR) and complete cytogenetic response (CCyR). Blood samples were collected at various time points on Day 1-2 and Day 27-28 during cycle 1 for PK analyses.

[8] = molecular target: Ba/F3 containing BCR-ABL Wild Type (Homo sapiens, UniProt P00519); conditions: read-out: Antiproliferation Effect (IC50)
[9] = Example 1, Table 2, T315I mutation
[10] = Example 1, Table 2, Without T315I mutation
[11] = FIG. 2A, CML-CP, 24 patients T315I−
[12] = FIG. 2A, CML-CP, 42 patients T315I+
[13] = FIG. 2A, CML-CP, total 66 patients
[14] = FIG. 3A, 30 mg, CML-CP, 7 patients T315I+
[15] = FIG. 3A, 30 mg, CML-CP, 7 patients T315I−
[16] = FIG. 3A, 30 mg, CML-CP, total 14 patients
[17] = FIG. 3B, 40 mg, CML-CP, 8 patients T315I−
[18] = FIG. 3B, 40 mg, CML-CP, 10 patients T315I+
[19] = FIG. 3B, 40 mg, CML-CP, total 18 patients
[20] = FIG. 3C, 50 mg, CML-CP, 4 patients T315I−
[21] = FIG. 3C, 50 mg, CML-CP, 8 patients T315I+
[22] = FIG. 3C, 50 mg, CML-CP, total 12 patients

Sequence of Ba/F3 containing BCR-ABL Wild Type (P00519 whole entry, stated change not applied): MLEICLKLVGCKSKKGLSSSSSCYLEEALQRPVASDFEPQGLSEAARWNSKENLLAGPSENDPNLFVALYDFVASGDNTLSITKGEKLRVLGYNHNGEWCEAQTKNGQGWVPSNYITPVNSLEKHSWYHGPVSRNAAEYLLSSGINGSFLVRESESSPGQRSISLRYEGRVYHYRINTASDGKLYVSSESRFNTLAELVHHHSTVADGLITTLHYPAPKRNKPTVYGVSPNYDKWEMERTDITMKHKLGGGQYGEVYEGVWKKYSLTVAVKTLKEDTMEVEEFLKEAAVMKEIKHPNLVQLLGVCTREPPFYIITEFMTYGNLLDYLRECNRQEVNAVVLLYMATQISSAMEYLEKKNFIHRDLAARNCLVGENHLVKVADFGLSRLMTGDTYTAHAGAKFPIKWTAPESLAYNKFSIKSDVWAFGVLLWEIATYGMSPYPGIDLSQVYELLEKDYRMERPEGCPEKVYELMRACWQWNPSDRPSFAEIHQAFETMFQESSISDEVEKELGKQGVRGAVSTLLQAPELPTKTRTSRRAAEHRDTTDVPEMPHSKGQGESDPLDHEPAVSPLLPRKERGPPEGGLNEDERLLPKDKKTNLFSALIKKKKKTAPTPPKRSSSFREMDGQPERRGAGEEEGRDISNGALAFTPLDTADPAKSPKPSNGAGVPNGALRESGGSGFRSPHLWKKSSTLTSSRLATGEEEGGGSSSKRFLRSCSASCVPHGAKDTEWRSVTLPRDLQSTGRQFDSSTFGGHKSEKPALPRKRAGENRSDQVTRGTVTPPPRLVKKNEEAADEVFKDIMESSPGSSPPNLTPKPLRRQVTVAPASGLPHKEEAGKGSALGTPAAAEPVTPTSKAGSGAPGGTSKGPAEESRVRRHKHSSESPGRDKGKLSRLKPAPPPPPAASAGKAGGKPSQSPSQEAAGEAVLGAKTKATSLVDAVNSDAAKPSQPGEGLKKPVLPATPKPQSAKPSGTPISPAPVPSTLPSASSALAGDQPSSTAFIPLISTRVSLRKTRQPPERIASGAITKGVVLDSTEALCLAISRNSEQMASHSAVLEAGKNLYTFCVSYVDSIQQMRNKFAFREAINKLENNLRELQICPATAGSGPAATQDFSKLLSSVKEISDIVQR

In the case of `Cc1ccc(C(=O)Nc2ccc(CN3CCN(C)CC3)c(C(F)(F)F)c2)cc1C#Cc1cnc2[nH]ncc2c1` [compound of formula (I-A), 3-(2-(1H-pyrazolo[3,4-b]pyridin-5-yl)ethynyl)-4-methyl-N-(4-((4-methylpiperazin-1-yl)methyl)-3-(trifluoromethyl)phenyl)-benzamide], the “survival rate of isogenic leukemia mice” value [1] is reported as “significantly improved the survival rate”, the “effect on subcutaneous tumors” value [2] is reported as “complete regression” and the “effect on subcutaneous tumors” value [3] is reported as “complete regression”. The “survival rate of isogenic leukemia mice” value ([4]; Ba/F3 BCR-ABL T315I) was “significantly improved the survival rate”, the “survival of tumor bearing mice (FIG. 8)” value ([4]; oral q2d or q3d, dose-dependent manner, imatinib qd as control) was “significantly prolonged the survival” and the “time at which peak concentration was reached” value ([5]; Day 1, single oral administration, 1-60 mg) was 1 to 12 h. For the same compound, the “time at which peak concentration was observed” value ([5]; Day 27, QOD) was 1 to 12 h, the half-life ([5]; mean terminal T1/2, Day 1, 1-60 mg, watching time window 48 hrs) was 17.5 to 36.5 h and the half-life ([5]; mean terminal T1/2, Day 27, watching time window 48 hrs) was 19.8 to 42.5 h. The Tmax ([5]; Day 1, 1-60 mg) was 4 to 8 h, the Tmax ([5]; Day 27, QOD) was 4 to 6 h and the “effect on subcutaneous tumors” value [6] was “complete regression”. For the same compound, the “activity by T315I mutation status at baseline” value ([7]; Example 1, Table 2) was “highly active in patients with or without T315I mutation at baseline”, the “Complete cytogenetic response, responders/evaluable” value ([7]; Example 1, Table 2, All) was 14/47 and the “Complete hematological response, responders/evaluable” value ([7]; Example 1, Table 2, All) was 65/70. For the same compound, the “Major cytogenetic response, responders/evaluable” value ([7]; Example 1, Table 2, All) was 24/47, the “Major molecular response, percent” value ([7]; Example 1, Table 2, All) was “(13%)” and the “Major molecular response, responders/evaluable” value ([7]; Example 1, Table 2, All) was 6/48. For the same compound, the “Complete cytogenetic response, percent” value [7, 9] was “(45%)”, the “Complete cytogenetic response, responders/evaluable” value [7, 9] was 13/29 and the “Complete hematological response, percent” value [7, 9] was “(89%)”. For the same compound, the “Complete hematological response, responders/evaluable” value [7, 9] was 40/45, the “Major cytogenetic response, percent” value [7, 9] was “(59%)” and the “Major cytogenetic response, responders/evaluable” value [7, 9] was 17/29. For the same compound, the “Major molecular response, percent” value [7, 9] was “(20%)”, the “Major molecular response, responders/evaluable” value [7, 9] was 6/30 and the “Complete cytogenetic response, percent” value [7, 10] was “(6%)”. For the same compound, the “Complete cytogenetic response, responders/evaluable” value [7, 10] was 1/18, the “Complete hematological response, percent” value [7, 10] was “(100%)” and the “Complete hematological response, responders/evaluable” value [7, 10] was 25/25. For the same compound, the “Major cytogenetic response, percent” value [7, 10] was “(39%)”, the “Major cytogenetic response, responders/evaluable” value [7, 10] was 7/18 and the “Major molecular response, responders/evaluable” value [7, 10] was 0/18. The CHR achieved ([7]; Example 1, AP patients) was 7 (58%) n (%), the CCyR achieved ([7]; Example 1, AP patients) was 2 (25%) n (%) and the MCyR achieved ([7]; Example 1, AP patients) was 3 (38%) n (%). For the same compound, the MMR achieved ([7]; Example 1, CP patients) was 6 (15%) n (%), the CHR achieved ([7]; Example 1, CP patients) was 58 (100%) n (%) and the CCyR achieved ([7]; Example 1, CP patients) was 12 (31%) n (%). The MCyR achieved ([7]; Example 1, CP patients) was 21 (54%) n (%), the “patients who achieved MCyR or MMR at the end of cycle” value ([7]; Example 1, cycle number not given) was “More than 65%” and the CHR ([7]; FIG. 1A, CML-CP, 32 patients T315I−) was 100%. The CHR ([7]; FIG. 1A, CML-CP, 50 patients T315I+) was 96%, the CHR ([7]; FIG. 1A, CML-CP, total 82 patients) was 98% and the CHR ([7]; FIG. 1B, CML-AP, 3 patients T315I−) was 100%. For the same compound, the CHR ([7]; FIG. 1B, CML-AP, 11 patients T315I+) was 82%, the CHR ([7]; FIG. 1B, CML-AP, total 14 patients) was 86% and the CCyR [7, 11] was 17%. For the same compound, the MCyR [7, 11] was 46%, the PCyR [7, 11] was 29% and the CCyR [7, 12] was 74%. For the same compound, the MCyR [7, 12] was 78%, the PCyR [7, 12] was 4% and the CCyR [7, 13] was 53%. The MCyR [7, 13] was 67%, the PCyR [7, 13] was 14% and the “response rate (cytogenetic)” value ([7]; FIG. 2B, CML-AP, 3 patients T315I−) was 0. For the same compound, the CCyR ([7]; FIG. 2B, CML-AP, 9 patients T315I+) was 33%, the MCyR ([7]; FIG. 2B, CML-AP, total 12 patients) was 25% and the CCyR [7, 14] was 57%. It also gave an MCyR [7, 14] of 71%, a PCyR [7, 14] of 14% and a CCyR [7, 15] of 14%. It also gave an MCyR [7, 15] of 28%, a PCyR [7, 15] of 14% and a CCyR [7, 16] of 36%. The MCyR [7, 16] was 50%, the PCyR [7, 16] was 14% and the CCyR [7, 17] was 13%. For the same compound, the MCyR [7, 17] was 50%, the PCyR [7, 17] was 38% and the CCyR [7, 18] was 60%. For the same compound, the MCyR [7, 18] was 60%, the CCyR [7, 19] was 38% and the MCyR [7, 19] was 54%. For the same compound, the PCyR [7, 19] was 16%, the CCyR [7, 20] was 25% and the MCyR [7, 20] was 50%. It also gave a PCyR [7, 20] of 25%, a CCyR [7, 21] of 75% and an MCyR [7, 21] of 100%. For the same compound, the PCyR [7, 21] was 25%, the CCyR [7, 22] was 58% and the MCyR [7, 22] was 83%. The PCyR [7, 22] was 25%, the MMR ([7]; FIG. 4A, CML-CP, 24 patients T315I−) was 4% and the MMR ([7]; FIG. 4A, CML-CP, 43 patients T315I+) was 47%. It also gave an MMR ([7]; FIG. 4A, CML-CP, total 67 patients) of 31%, an MMR ([7]; FIG. 4B, CML-AP, 3 patients T315I−) of 0% and an MMR ([7]; FIG. 4B, CML-AP, 9 patients T315I+) of 11%. The MMR ([7]; FIG. 4B, CML-AP, total 12 patients) was 8% and the GI50 [8] was 6 ± 3 nM.
